system: SREBP pathway; assay: SREBP luciferase reporter gene system (SRE-luciferase assay); type: cell-based, human; settings: Homo sapiens, Huh-7, 16 h, Huh-7/SRE-luc cells, sterol-deficient medium, 0.01-10 µM
In short: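 Huh-7 cells stably carrying LDLR promoter-luciferase plus GFP were treated 16 h in sterol-deficient medium (5% lipoprotein-deficient serum, 2 µM lovastatin, 10 µM mevalonic acid) at 0.01–10 µM. Luciferase/GFP ratio measured as pathway activity; inhibition versus DMSO fitted to a four-parameter model for IC50.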

Compound	IC50
C[C@H](CCCC(O)c1cnc2c(c1)OC(F)(F)O2)[C@H]1CC[C@H]2[C@H]3[C@H](CC[C@]12C)[C@@]1(C)CC[C@H](O)[C@H](O)[C@@H]1CC3(F)F (single isomer, unassigned) [Compound 285]	0.253 µM
COc1cc(F)ccc1[C@H](O)CCC[C@@H](C)[C@H]1CC[C@H]2C3=C(F)C[C@H]4[C@@H](O)[C@@H](O)CC[C@]4(C)[C@H]3CC[C@]12C [Compound 132, (1R,3aR,5aR,6R,7S,9aR,9bR,11aR)-4-fluoro-1-[(2R,6R)-6-(4-fluoro-2-methoxyphenyl)-6-hydroxyhexan-2-yl]-9a,11a-dimethyl-2,3,3a,5,5a,6,7,8,9,9a,9b,10,11,11a-tetradecahydro-1H-cyclopenta[1,2-a]phenanthrene-6,7-diol]	0.096 µM
C[C@H](CCCC(O)c1ccc2c(c1)OC(F)(F)O2)[C@H]1CC[C@H]2[C@H]3[C@H](CC[C@]12C)[C@@]1(C)CC[C@H](O)[C@H](O)[C@@H]1CC3(F)F (single isomer, unassigned) [Compound 258, (1R,3aS,3bS,5aR,6R,7S,9aR,9bS,11aR)-1-[(2R,6S)-6-(2,2-difluorobenzo[d][1,3]dioxol-5-yl)-6-hydroxyhexan-2-yl]-4,4-difluoro-9a,11a-dimethylhexadecahydro-1H-cyclopenta[1,2-a]phenanthrene-6,7-diol or (1R,3aS,3bS,5aR,6R,7S,9aR,9bS,11aR)-1-[(2R,6R)-6-(2,2-difluorobenzo[d][1,3]dioxol-5-yl)-6-hydroxyhexan-2-yl]-4,4-difluoro-9a,11a-dimethylhexadecahydro-1H-cyclopenta[1,2-a]phenanthrene-6,7-diol]	0.454 µM
COc1ccc(F)cc1[C@@H](O)CCC[C@@H](C)[C@H]1CC[C@H]2[C@H]3[C@H](CC[C@]12C)[C@@]1(C)CC[C@H](O)[C@H](O)[C@@H]1CC3(F)F [Compound 168, (1R,3aS,3bS,5aR,6R,7S,9aR,9bS,11aR)-4,4-difluoro-1-[(2R,6S)-6-(5-fluoro-2-methoxyphenyl)-6-hydroxyhexan-2-yl]-9a,11a-dimethylhexadecahydro-1H-cyclopenta[1,2-a]phenanthrene-6,7-diol]	0.092 µM
COc1cc(Cl)ccc1[C@@H](O)CCC[C@@H](C)[C@H]1CC[C@H]2C3=C(F)C[C@H]4[C@@H](O)[C@@H](O)CC[C@]4(C)[C@H]3CC[C@]12C [Compound 111, (1R,3aR,5aR,6R,7S,9aR,9bR,11aR)-1-[(2R,6S)-6-(4-chloro-2-methoxyphenyl)-6-hydroxyhexan-2-yl]-4-fluoro-9a,11a-dimethyl-2,3,3a,5,5a,6,7,8,9,9a,9b,10,11,11a-tetradecahydro-1H-cyclopenta[1,2-a]phenanthrene-6,7-diol]	1.48 µM
C[C@H](CCCC(O)c1nc2c(s1)CCOC2)[C@H]1CC[C@H]2[C@H]3[C@H](CC[C@]12C)[C@@]1(C)CC[C@H](O)[C@H](O)[C@@H]1CC3(F)F (stereo partly drawn) [Compound 257, (1R,3aS,3bS,5aR,6R,7 S,9aR,9bS,11aR)-1-[(2R)-6-(6,7-Dihydro-4H-pyrano[3,4-d][1,3]thiazol-2-yl)-6-hydroxyhexan-2-yl]-4,4-difluoro-9a,11a-dimethylhexadecahyd ro-1H-cyclopenta[1,2-a]phenanthrene-6,7-diol]	0.154 µM
COc1nc(F)ccc1[C@H](O)CC[C@@H](C)[C@H]1CC[C@H]2C3=C(F)C[C@H]4[C@@H](O)[C@@H](O)CC[C@]4(C)[C@H]3CC[C@]12C [Compound 340, (1R,3aR,5aR,6R,7S,9aR,9bR,11aR)-4-fluoro-1-[(2R,5R)-5-(6-fluoro-2-methoxypyridin-3-yl)-5-hydroxypentan-2-yl]-9a,11a-dimethyl-2,3,3a,5,5a,6,7,8,9,9a,9b,10,11,11a-tetradecahydro-1H-cyclopenta[1,2-a]phenanthrene-6,7-diol]	0.108 µM
COc1cccc(F)c1[C@@H](F)CCC[C@@H](C)[C@H]1CC[C@H]2[C@H]3[C@H](CC[C@]12C)[C@@]1(C)CC[C@H](O)[C@H](O)[C@@H]1CC3(F)F (single isomer, unassigned) [Compound 215]	3.57 µM
C[C@H](CCCC(O)c1cccc(OC(F)(F)F)c1)[C@H]1CC[C@H]2C3=C(F)C[C@H]4[C@@H](O)[C@@H](O)CC[C@]4(C)[C@H]3CC[C@]12C (stereo partly drawn) [Compound 88, (1R,3aR,5aR,6R,7S,9aR,9bR,11aR)-4-fluoro-1-[(2R)-6-hydroxy-6-{3-[(trifluoromethyl)oxy]phenyl}hexan-2-yl]-9a,11a-dimethyl-2,3,3a,5,5a,6,7,8,9,9a,9b,10,11,11a-tetradecahydro-1H-cyclopenta[1,2-a]phenanthrene-6,7-diol]	0.622 µM
C[C@H](CCCC(O)c1ccccc1OC(F)(F)F)[C@H]1CC[C@H]2C3=C(F)C[C@H]4[C@@H](O)[C@@H](O)CC[C@]4(C)[C@H]3CC[C@]12C (stereo partly drawn) [Compound 2, (1R,3aR,5aR,6R,7S,9aR,9bR,11aR)-4-fluoro-1-[(2R)-6-hydroxy-6-{2-[(trifluoromethyl)oxy]phenyl}hexan-2-yl]-9a,11a-dimethyl-2,3,3a,5,5a,6,7,8,9,9a,9b,10,11,11a-tetradecahydro-1H-cyclopenta[1,2-a]phenanthrene-6,7-diol]	0.45 µM
C[C@H](CCCC(O)c1ccc(F)nc1F)[C@H]1CC[C@H]2[C@H]3[C@H](CC[C@]12C)[C@@]1(C)CC[C@H](O)[C@H](O)[C@@H]1CC3(F)F (stereo partly drawn) [Compound 148, (1R,3aS,3bS,5aR,6R,7S,9aR,9bS,11aR)-1-[(2R)-6-(2,6-difluoropyridin-3-yl)-6-hydroxyhexan-2-yl]-4,4-difluoro-9a,11a-dimethylhexadecahydro-1H-cyclopenta[1,2-a]phenanthrene-6,7-diol]	0.08 µM
C[C@H](CCC[C@H](O)c1nc2cnccc2n1C)[C@H]1CC[C@H]2[C@H]3[C@H](CC[C@]12C)[C@@]1(C)CC[C@H](O)[C@H](O)[C@@H]1CC3(F)F [Compound 318, (1R,3aS,3bS,5aR,6R,7S,9aR,9bS,11aR)-4,4-difluoro-1-[(2R,6S)-6-hydroxy-6-(1-methylimidazo[5,4-c]pyridin-2-yl)hexan-2-yl]-9a,11a-dimethylhexadecahydro-1H-cyclopenta[1,2-a]phenanthrene-6,7-diol]	0.296 µM
COc1cc(F)ccc1[C@@H](O)CCC[C@@H](C)[C@H]1CC[C@H]2C3=C(F)C[C@H]4[C@@H](O)[C@@H](O)CC[C@]4(C)[C@H]3CC[C@]12C [Compound 133, (1R,3aR,5aR,6R,7S,9aR,9bR,11aR)-4-fluoro-1-[(2R,6S)-6-(4-fluoro-2-methoxyphenyl)-6-hydroxyhexan-2-yl]-9a,11a-dimethyl-2,3,3a,5,5a,6,7,8,9,9a,9b,10,11,11a-tetradecahydro-1H-cyclopenta[1,2-a]phenanthrene-6,7-diol]	0.095 µM
COc1nc(F)ccc1[C@](C)(O)CCC[C@@H](C)[C@H]1CC[C@H]2[C@H]3[C@H](CC[C@]12C)[C@@]1(C)CC[C@H](O)[C@H](O)[C@@H]1CC3(F)F [Compound 310, (1R,3aS,3bS,5aR,6R,7S,9aR,9bS,11aR)-4,4-difluoro-1-[(2R,6R)-6-(6-fluoro-2-methoxypyridin-3-yl)-6-hydroxyheptan-2-yl]-9a,11a-dimethylhexadecahydro-1H-cyclopenta[1,2-a]phenanthrene-6,7-diol]	0.209 µM
C[C@H](CCC(O)c1ccc(F)nc1OC1CC1)[C@H]1CC[C@H]2[C@H]3[C@H](CC[C@]12C)[C@@]1(C)CC[C@H](O)[C@H](O)[C@@H]1CC3(F)F (stereo partly drawn) [Compound 382, (1R,3aS,3bS,5aR,6R,7S,9aR,9bS,11aR)-1-[(2R)-5-[2-(cyclopropyloxy)-6-fluoropyridin-3-yl]-5-hydroxypentan-2-yl]-4,4-difluoro-9a,11a-dimethylhexadecahydro-1H-cyclopenta[1,2-a]phenanthrene-6,7-diol]	0.057 µM

same assay, conditions: Huh-7/SRE-luc cells, sterol-deficient medium, 16 hours, 0.01-10 µM

Compound	IC50
C[C@H](CCCC(O)c1cccc2[nH]ncc12)[C@H]1CC[C@H]2[C@H]3[C@H](CC[C@]12C)[C@@]1(C)CC[C@H](O)[C@H](O)[C@@H]1CC3(F)F (single isomer, unassigned) [Compound 273, (1R,3aS,3bS,5aR,6R,7S,9aR,9bS,11aR)-4,4-difluoro-1-[(2R,6S)-6-hydroxy-6-(1H-indazol-4-yl)hexan-2-yl]-9a,11a-dimethylhexadecahydro-1H-cyclopenta[1,2-a]phenanthrene-6,7-diol or (1R,3aS,3bS,5aR,6R,7S,9aR,9bS,11aR)-4,4-difluoro-1-[(2R,6R)-6-hydroxy-6-(1H-indazol-4-yl)hexan-2-yl]-9a,11a-dimethylhexadecahydro-1H-cyclopenta[1,2-a]phenanthrene-6,7-diol]	0.361 µM
C[C@H](CCCC(O)c1cccc2c1nnn2C)[C@H]1CC[C@H]2[C@H]3[C@H](CC[C@]12C)[C@@]1(C)CC[C@H](O)[C@H](O)[C@@H]1CC3(F)F (single isomer, unassigned) [Compound 291, (1R,3aS,3bS,5aR,6R,7S,9aR,9bS,11aR)-4,4-difluoro-1-[(2R,6R)-6-hydroxy-6-(1-methylbenzo[d][1,2,3]triazol-4-yl)hexan-2-yl]-9a,11a-dimethylhexadecahydro-1H-cyclopenta[1,2-a]phenanthrene-6,7-diol or (1R,3aS,3bS,5aR,6R,7S,9aR,9bS,11aR)-4,4-difluoro-1-[(2R,6S)-6-hydroxy-6-(1-methylbenzo[d][1,2,3]triazol-4-yl)hexan-2-yl]-9a,11a-dimethylhexadecahydro-1H-cyclopenta[1,2-a]phenanthrene-6,7-diol]	0.141 µM
COc1nc(C)ccc1C(O)CCC[C@@H](C)[C@H]1CC[C@H]2[C@H]3[C@H](CC[C@]12C)[C@@]1(C)CC[C@H](O)[C@H](O)[C@@H]1CC3(F)F (single isomer, unassigned) [Compound 218, (1R,3aS,3bS,5aR,6R,7S,9aR,9bS,11aR)-4,4-difluoro-1-[(2R,6R)-6-hydroxy-6-(2-methoxy-6-methylpyridin-3-yl)hexan-2-yl]-9a,11a-dimethylhexadecahydro-1H-cyclopenta[1,2-a]phenanthrene-6,7-diol or (1R,3aS,3bS,5aR,6R,7S,9aR,9bS,11aR)-4,4-difluoro-1-[(2R,6S)-6-hydroxy-6-(2-methoxy-6-methylpyridin-3-yl)hexan-2-yl]-9a,11a-dimethylhexadecahydro-1H-cyclopenta[1,2-a]phenanthrene-6,7-diol]	0.141 µM

Reference: patent EP4752152A1, “STEROID COMPOUND, AND PREPARATION METHOD THEREFOR AND USE THEREOF” (Cholesgen (Shanghai) Co.Ltd., priority 2023, dated 2025)
